For one assay, the system named is Clostridium perfringens. Kind of assay: Antibacterial activity against Clostridium perfringens CECT376 assessed as bacterial growth inhibition incubated for 18 hrs by Mueller-Hinton broth based doubling dilution method. It counts as functional.
In assay [1] the test system is Lactococcus lactis. The experiment in a line: Antibacterial activity against Lactococcus lactis MG1363 assessed as bacterial growth inhibition incubated for 18 hrs by Mueller-Hinton broth based doubling dilution method. It counts as functional.
A further assay relates to Listeria monocytogenes. Kind of assay: Antibacterial activity against Listeria monocytogenes LMG10470 assessed as bacterial growth inhibition incubated for 18 hrs by Mueller-Hinton broth based doubling dilution method. It counts as functional.
In assay [2] the test system is Staphylococcus aureus. Kind of assay: Antibacterial activity against Staphylococcus aureus LMG10147 assessed as bacterial growth inhibition incubated for 18 hrs by Mueller-Hinton broth based doubling dilution method. It counts as functional.
The subject of assay [3] is Staphylococcus aureus. Kind of assay: Antibacterial activity against methicillin-resistant Staphylococcus aureus LMG15975 assessed as bacterial growth inhibition incubated for 18 hrs by Mueller-Hinton broth based doubling dilution method. It counts as functional.
In a further assay the test system is Enterococcus faecalis. The experiment in a line: Antibacterial activity against vancomycin-resistant Enterococcus faecalis LMG16216 assessed as bacterial growth inhibition incubated for 18 hrs by Mueller-Hinton broth based doubling dilution method. It counts as functional.
The test system of the next assay is Enterococcus faecium. The experiment in a line: Antibacterial activity against vancomycin-resistant Enterococcus faecium LMG16003 assessed as bacterial growth inhibition incubated for 18 hrs by Mueller-Hinton broth based doubling dilution method. It counts as functional.
Assay [4] has as its system Bacillus cereus. Kind of assay: Antibacterial activity against Bacillus cereus ATCC14579 assessed as bacterial growth inhibition incubated for 18 hrs by Mueller-Hinton broth based doubling dilution method. It counts as functional.
The subject of another assay is Clostridium botulinum. The experiment in a line: Antibacterial activity against Clostridium botulinum CECT551 assessed as bacterial growth inhibition incubated for 18 hrs by Mueller-Hinton broth based doubling dilution method. It counts as functional.
The subject of the next assay is Clostridium tetani. Kind of assay: Antibacterial activity against Clostridium tetani CECT4629 assessed as bacterial growth inhibition incubated for 18 hrs by Mueller-Hinton broth based doubling dilution method. It counts as functional.
Assay [5] relates to Lactococcus lactis. Kind of assay: Antibacterial activity against Lactococcus lactis MG1363 assessed as bacterial death at 10 times of MIC by time killing assay. It counts as functional, organism-based.
Another assay has as its system Cell membrane. The experiment in a line: Induction of membrane permeabilization in Lactococcus lactis MG1363 assessed as pore forming ability by measuring increase in red fluorescence at 2 times MIC measured after 15 mins by SYTO-9 Green dye/red PI staining based fluorescence microscopy. It counts as subcellular.
Assay [6] concerns Lactococcus lactis. Kind of assay: Antibacterial activity against Lactococcus lactis MG1363 at 1 mg/ml incubated at pH 2 for 4 hrs. It counts as functional, organism-based.
For assay [7], the system named is Lactococcus lactis. The experiment in a line: Antibacterial activity against Lactococcus lactis MG1363 at 1 mg/ml incubated at pH 4 for 4 hrs. It counts as functional, organism-based.
In assay [8] the test system is Lactococcus lactis. Kind of assay: Antibacterial activity against Lactococcus lactis MG1363 at 1 mg/ml incubated at pH 7 for 4 hrs. It counts as functional, organism-based.
Assay [9] relates to Lactococcus lactis. Kind of assay: Antibacterial activity against Lactococcus lactis MG1363 at 1 mg/ml incubated at pH 10 for 4 hrs. It counts as functional, organism-based.
Assay [10] has as its system Bacillus cereus. Kind of assay: Antibacterial activity against Bacillus cereus ATCC14579 assessed as inhibition of bacterial growth at 1 mg/ml incubated for 16 hrs by agar well diffusion assay relative to control. It counts as functional. On the technique in general: Agar diffusion results depend on both activity and mobility in agar.
Assay [11] concerns Staphylococcus aureus. The experiment in a line: Antibacterial activity against Staphylococcus aureus LMG15975 assessed as inhibition of bacterial growth at 1 mg/ml incubated for 16 hrs by agar well diffusion assay relative to control. It counts as functional.
In assay [12] the test system is Lactococcus lactis. The experiment in a line: Antibacterial activity against Lactococcus lactis MG1363 assessed as inhibition of bacterial growth at 1 mg/ml incubated for 16 hrs by agar well diffusion assay relative to control. It counts as functional.

≈ marks a conversion by molar mass, not a printed value. Calls of active or inactive are those of the source. No cut-off for these calls is given here. *1 amine or outer side, *2 acyl side, *3 side chain or, on linkers, in order; H or OH if unused. Where a SMILES comes first, the peptide text is derived from it. Bridges are numbered along the chain shown (N, C = ends). [ ]: non-standard residue; d: D form. X1 = O=C([C@@H](N[*:1])[C@H](O)C[*:3])[*:2]; Abu(4-yl) = O=C([C@H](CC[*:3])N[*:1])[*:2]

In the case of `CC[C@H](C)[C@H](NC(=O)[C@@H](NC(=O)[C@H](CCCCN)NC(=O)[C@H](CC(C)C)NC(=O)[C@@H](NC(=O)CNC(=O)[C@H](CC(N)=O)NC(=O)CN)C(C)C)[C@@H](C)O)C(=O)N[C@H]1CCSC[C@@H]2NC(=O)[C@@H](NC(=O)[C@H](Cc3ccccc3)NC(=O)[C@H](CC(C)C)NC(=O)[C@H](Cc3ccccc3)NC(=O)[C@H](CCC(N)=O)NC(=O)[C@H](Cc3c[nH]c4ccccc34)NC(=O)[C@H]([C@@H](C)O)NC(=O)[C@H](CC(N)=O)NC(=O)[C@H](CCSC)NC(=O)[C@H](CC(N)=O)NC(=O)[C@H](CS)NC(=O)[C@H](CCC(=O)O)NC(=O)[C@H](Cc3c[nH]cn3)NC1=O)[C@H](O)CSC[C@@H](C(=O)O)NC2=O` (H-GNGVLKTI[Abu(4-yl)]HECNMNTWQFLF[X1]CC-OH; thioether 9-23, 22-24), in the assay with Clostridium perfringens, the MIC (as a rule, the least concentration at which growth counts as inhibited) turned out to be 75 µg/mL (≈ 27.4 µM).

`C=C(NC(=O)[C@@H](NC(=O)[C@H](Cc1c[nH]cn1)NC(=O)[C@@H](NC(=O)[C@H](CO)NC(=O)[C@@H]1CS[C@@H](C)[C@H]2NC(=O)C(=C)NC(=O)[C@H](NC(=O)[C@H](CCCCN)NC(=O)[C@H](CCSC)NC(=O)[C@H](CC(N)=O)NC(=O)[C@@H]3CS[C@@H](C)[C@@H](NC(=O)[C@H](CCCNN)NC(=O)[C@@H]4CS[C@@H](C)[C@@H](NC(=O)[C@@H]5CSC[C@@H](NC(=O)/C(=C\C)NC(=O)[C@@H](N)[C@@H](C)CC)C(=O)N[C@@H]([C@@H](C)CC)C(=O)NC(=C)C(=O)N[C@@H]([C@@H](C)CC)C(=O)N5)C(=O)N5CCC[C@H]5C(=O)NCC(=O)N4)C(=O)NCC(=O)N[C@@H](C)C(=O)N[C@@H]([C@@H](C)CC)C(=O)N[C@@H](CCSC)C(=O)NCC(=O)N3)[C@H](C)SC[C@H](NC2=O)C(=O)N[C@@H](Cc2c[nH]cn2)C(=O)N1)[C@@H](C)CC)C(C)C)C(=O)N[C@@H](CCCCN)C(=O)O`: the MIC in the assay with Lactococcus lactis [1] was determined as 0.016 µg/mL (≈ 0.00477 µM); with Listeria monocytogenes, 8 µg/mL (≈ 2.39 µM); in the assay on Staphylococcus aureus [2], 16 µg/mL (≈ 4.77 µM); with Staphylococcus aureus [3] it was 4 µg/mL (≈ 1.19 µM); in the assay with Enterococcus faecalis it was 4 µg/mL (≈ 1.19 µM); in the assay with Enterococcus faecium it was 4 µg/mL (≈ 1.19 µM). In addition, the MIC in the assay with Bacillus cereus [4] is 4 µg/mL (≈ 1.19 µM); with Clostridium botulinum it was 4 µg/mL (≈ 1.19 µM); with Clostridium perfringens it was 1 µg/mL (≈ 0.298 µM); in the assay on Clostridium tetani it was 4 µg/mL (≈ 1.19 µM). Also, the Activity entry with Lactococcus lactis [5] is “Active; Rapid Cell Death Observed”. Besides, the result in the assay on Cell membrane, in the assay on Lactococcus lactis [6], with Lactococcus lactis [7], in the assay with Lactococcus lactis [8] and with Lactococcus lactis [9] was Active.

Turning to `C=C1NC(=O)[C@H](C(C)C)NC(=O)[C@@H]2CSC[C@@H](C(=O)N[C@@H](CCCCN)C(=O)O)NC(=O)[C@H](CSC[C@H]3NC(=O)[C@H](Cc4ccccc4)NC(=O)[C@@H](NC(=O)[C@@H](NC(=O)[C@@H](NC(=O)[C@@H](NC(=O)CNC(=O)CNC(=O)CN)C(C)C)[C@@H](C)CC)[C@@H](C)O)CSC[C@@H](NC(=O)[C@H](CCC(=O)O)NC(=O)[C@H](Cc4c[nH]cn4)NC3=O)C(=O)N[C@@H](Cc3ccc(O)cc3)C(=O)N[C@@H](Cc3ccc(O)cc3)C(=O)N[C@@H](CC(N)=O)C(=O)N2)NC(=O)CNC(=O)[C@H](CO)NC(=O)[C@H](C)NC(=O)[C@@H]2CCCN2C1=O`, the result with Bacillus cereus [10], in the assay with Staphylococcus aureus [11] and in the assay with Lactococcus lactis [12] was inactive.

These data come from ChEMBL document CHEMBL6153065, “Heterologous Expression and Characterization of Estercin A, a Class II Lanthipeptide Derived from Clostridium estertheticum CF016, with Antimicrobial Activity against Clinically Relevant Pathogens” (2025).
